Source: US9610273B2, “Method for the treatment of hypercholesterolemia” (SAMI LABS LIMITED, priority 2014, dated 2017)
Marks after values point to notes of the source that are not given here.

What was measured:
mice = assay: Acute Oral Toxicity of Calebin A; format: in vivo
Experimental: No mortality was observed up to 2000 mg/kg p.o. in mice up to two weeks of observation.

[1] = system: C57 mice on high fat diet (60 kcal % Fat); assay: Effect of Calebin A on serum clinical chemistry parameters in high fat diet obese mice (hypercholesterolemia and hyperlipidemia); format: in vivo; details: for change in mean Albumin values: female animals, considered incidental; for ALT/SGPT / AST/SGOT / Albumin / Glucose / Total Cholesterol / Total Protein / Triglycerides / HDL / LDL / VLDL: 28 days, serum, n = 5; for ALT/SGPT / AST/SGOT / Albumin / Glucose / Total Cholesterol / Total Protein / Triglycerides: Mean ± SD; for HDL / LDL / VLDL: mean
Excerpt: d. Diet: The animals were fed ad libitum with AMRUT Laboratory Animal feed manufactured by Pranav Agro Industries Limited, Sangli, Maharastra throughout the acclimatization Open Source Diet D12450B diet (with 10 kcal % Fat) and Open Source Diet D12492 High fat diet (with 60 kcal % Fat) manufactured by Research Diet Inc, USA procured from Indus Marketing, Hyderabad, Andhra Pradesh, INDIA was used for induction of obesity and the main study.
Grouping of animals was done on the last day of acclimatization by body weight randomization and stratification method.
The animals were divided into 5 groups viz., Group 1, 2, 3, 4 and 5 consisting of 10 animals (5 male and 5 female) each.
a. Dose Volume: Dose volume/animal=10 ml/kg body weight for all animals throughout the study period
b. Obesity induction: The G1 Control group animals were fed with normal control diet feed D12450B containing 10 kcal % fat and the G2 to G5 group animals were fed with high fat diet feed D12492 containing 60 kcal % fat during the induction of obesity and during main study. Obesity induction was done considering the scientific rationale that obesity is a serious risk factor for hypercholesterolemia.
c. Main Study: The main study was started after the induction of obesity. The 3 doses of Calebin A was administered to animals from Day 29 daily consecutively for a period of 28 days. The feeding of diets continued in the main study in a similar way as performed in induction of obesity. The G1 Control and G2 High fat diet control group animals were administered with 0.5% CMC (Carboxy Methyl Cellulose) while other group animals received test item from Day 29 to Day 56 of the study period. The dose volume of administration was maintained according to the weekly body weight of individual animals.
d. Duration of the study: The total duration of the study was 61 days (5 days Acclimatization period+28 days Induction of obesity+[…] Main study).
The raw data obtained from the present study were subjected to computer statistical processing. The computer printout of the data (in the form of appendix) was verified with the original raw data. After verification, the data was subjected to One-way ANOVA (Analysis of Variance) with Dunnett's post test for the data on body weights, hematology and clinical chemistry parameters, organ weights using GraphPad Prism version 5.01, GraphPad Software. All analyses and comparisons was evaluated at the 95% level of confidence (P<0.05), indicated by the designated by the superscripts of a where G1 is compared to G3, G4, G5, and G6 and b where G2 is compared to G3, G4, G5, and G6 throughout the report as stated below: *: Statistically significant (P<0.05) wherever applicable.
At the completion of the study period, blood samples were collected from all the animals in tubes containing potassium ethylene […] tetra acetic acid (K2-EDTA) anticoagulant for hematology and without anticoagulant for clinical chemistry. The blood samples collected in tubes without anticoagulant were centrifuged at 3000 rpm for 10 minutes to obtain serum. Blood samples were collected humanely from retro-orbital plexus puncture method under mild ether anesthesia with the help of a fine capillary tube. The following clinical chemistry parameters were analyzed.
The following clinical chemistry parameters (TABLE III) were analyzed using the “Erba Mannheim Chem Touch analyzer” (Transasia Bio-Medicals Ltd, India) from serum samples.

[2] = conclusion, doses of 5, 10 and 20 mg/kg body weight, hypercholesterolemic mammals
[3] = female mice, G3 5 mg/kg + High fat diet (60 kcal % Fat)
[4] = female mice, G4 10 mg/kg + High fat diet (60 kcal % Fat)
[5] = female mice, G5 20 mg/kg + High fat diet (60 kcal % Fat)
[6] = male and female animals, G3, G4, G5 (5, 10, 20 mg/kg + High fat diet) compared to G2 High fat diet Control
[7] = male animals, G3, G4, G5 (5, 10, 20 mg/kg + High fat diet) compared to G2 High fat diet Control
[8] = male mice, G3 5 mg/kg + High fat diet (60 kcal % Fat)
[9] = male mice, G4 10 mg/kg + High fat diet (60 kcal % Fat)
[10] = male mice, G5 20 mg/kg + High fat diet (60 kcal % Fat)

Q: `COc1cc(/C=C/C(=O)COC(=O)/C=C/c2ccc(O)c(OC)c2)ccc1O` [Calebin A] was tested. Which Aggression (mice; mouse, in vivo, po) did it give?
A: Aggression = Nil

Q: And the Atexia (mice; mouse, in vivo, po)?
A: Atexia = Nil

Q: And the Blanching (mice; mouse, in vivo, po)?
A: Blanching = Nil

Q: What about the “Clonic Convulsions” value (mice; mouse, in vivo, po) of the same compound?
A: Clonic Convulsions = Nil

Q: And the Corneal (mice; mouse, in vivo, po)?
A: Corneal = No effect

Q: And the Cyanosis (mice; mouse, in vivo, po)?
A: Cyanosis = Nil

Q: What about the Diarrhea (mice; mouse, in vivo, po) of the same compound?
A: Diarrhea = Nil

Q: What about the Excitation (mice; mouse, in vivo, po) of the same compound?
A: Excitation = Nil

Q: And the Fear (mice; mouse, in vivo, po)?
A: Fear = Nil

Q: What about the “Fecal Output” value (mice; mouse, in vivo, po) of the same compound?
A: Fecal Output = Normal

Q: What about the “General Locomotor Activity” value (mice; mouse, in vivo, po) of the same compound?
A: Normal

Q: And the “General Movement” value (mice; mouse, in vivo, po)?
A: General Movement = Normal

Q: And the Hyperaemia (mice; mouse, in vivo, po)?
A: Hyperaemia = Nil

Q: And the “Muscular Weakness” value (mice; mouse, in vivo, po)?
A: Muscular Weakness = Nil

Q: What about the Passive (mice; mouse, in vivo, po) of the same compound?
A: Passive = Nil

Q: And the “Pilo Erection” value (mice; mouse, in vivo, po)?
A: Pilo Erection = Nil

Q: What about the Pinnal (mice; mouse, in vivo, po) of the same compound?
A: Pinnal = No effect

Q: And the “Respiration Depth” value (mice; mouse, in vivo, po)?
A: Respiration Depth = Normal

Q: What about the “Respiration Rate” value (mice; mouse, in vivo, po) of the same compound?
A: Respiration Rate = Normal

Q: What about the Salivation (mice; mouse, in vivo, po) of the same compound?
A: Salivation = Nil

Q: What about the “Tonic Convulsion” value (mice; mouse, in vivo, po) of the same compound?
A: Tonic Convulsion = Nil

Q: What about the Tremors (mice; mouse, in vivo, po) of the same compound?
A: Tremors = Nil

Q: What about the “Urine Output” value (mice; mouse, in vivo, po) of the same compound?
A: Urine Output = Normal

Q: What about the mortality (mice; up to 2000 mg/kg p.o., mice, up to two weeks of observation) of the same compound?
A: No mortality

Q: What about the “HDL concentrations in the blood” value [1, 2] of the same compound?
A: increased

Q: And the “LDL concentrations in the blood” value [1, 2]?
A: decreased

Q: And the “VLDL concentrations in the blood” value [1, 2]?
A: decreased

Q: What about the serum triglyceride concentrations ([1]; conclusion, doses of 5, 10 and 20 mg/kg body weight, hyperlipidemic mammals) of the same compound?
A: lowered

Q: And the “change in mean Albumin values” ([1]; G5 20 mg/kg + High fat diet compared to G1 Control (10 kcal % Fat))?
A: statistically significant decrease

Q: What about the “change in mean Albumin values” ([1]; G5 20 mg/kg + High fat diet compared to G2 High fat diet Control) of the same compound?
A: statistically significant decrease

Q: What about the ALT/SGPT [1, 3] of the same compound?
A: 41.73 ± 5.39 IU/L

Q: What about the AST/SGOT [1, 3] of the same compound?
A: 80.51 ± 32.35 IU/L

Q: And the Albumin [1, 3]?
A: 2.82 ± 0.19 g/dL

Q: What about the Glucose [1, 3] of the same compound?
A: 134.52 ± 26.85 mg/dL

Q: What about the “Total Cholesterol” value [1, 3] of the same compound?
A: 75.71 ± 13.90 mg/dL

Q: What about the “Total Protein” value [1, 3] of the same compound?
A: 5.37 ± 0.80 g/dL

Q: And the Triglycerides [1, 3]?
A: 60.15 ± 10.25 mg/dL

Q: What about the HDL [1, 3] of the same compound?
A: 81.59 mg/dL

Q: And the LDL [1, 3]?
A: 78.68 mg/dL

Q: What about the VLDL [1, 3] of the same compound?
A: 15.14 mg/dL

Q: What about the ALT/SGPT [1, 4] of the same compound?
A: 63.29 ± 32.86 IU/L

Q: What about the AST/SGOT [1, 4] of the same compound?
A: 79.89 ± 50.05 IU/L

Q: What about the Albumin [1, 4] of the same compound?
A: 2.80 ± 0.38 g/dL

Q: And the Glucose [1, 4]?
A: 112.34 ± 11.35 mg/dL

Q: What about the “Total Cholesterol” value [1, 4] of the same compound?
A: 47.54 ± 14.21 mg/dL

Q: And the “Total Protein” value [1, 4]?
A: 4.91 ± 0.20 g/dL

Q: What about the Triglycerides [1, 4] of the same compound?
A: 59.70 ± 4.33 mg/dL

Q: And the HDL [1, 4]?
A: 66.85 mg/dL

Q: What about the LDL [1, 4] of the same compound?
A: 61.20* ^b ± mg/dl

Q: What about the VLDL [1, 4] of the same compound?
A: 9.51 mg/dL

Q: What about the ALT/SGPT [1, 5] of the same compound?
A: 55.51 ± 16.94 IU/L

Q: What about the AST/SGOT [1, 5] of the same compound?
A: 79.91 ± 36.82 IU/L

Q: What about the Glucose [1, 5] of the same compound?
A: 93.58 ± 11.49 mg/dL

Q: And the “Total Cholesterol” value [1, 5]?
A: 69.14 ± 21.88 mg/dL

Q: What about the “Total Protein” value [1, 5] of the same compound?
A: 4.88 ± 0.27 g/dL

Q: What about the Triglycerides [1, 5] of the same compound?
A: 52.88 ± 4.56 mg/dL

Q: And the HDL [1, 5]?
A: 66.67 mg/dL

Q: And the LDL [1, 5]?
A: 52.31** ^b ± mg/dl

Q: What about the VLDL [1, 5] of the same compound?
A: 13.83 mg/dL

Q: And the “change in mean Low Density Lipoproteins values” [1, 6]?
A: decrease

Q: What about the “change in mean Very Low Density Lipoproteins values” [1, 6] of the same compound?
A: decrease

Q: What about the “change in mean high Density Lipoproteins values” ([1]; male and female animals, G4, G5 (10, 20 mg/kg + High fat diet) compared to G2 High fat diet Control) of the same compound?
A: increase

Q: And the “change in mean Total Cholesterol values” [1, 7]?
A: decrease

Q: What about the “change in mean Triglycerides values” [1, 7] of the same compound?
A: decrease

Q: What about the ALT/SGPT [1, 8] of the same compound?
A: 64.35 ± 24.58 IU/L

Q: What about the AST/SGOT [1, 8] of the same compound?
A: 86.99 ± 35.22 IU/L

Q: What about the Albumin [1, 8] of the same compound?
A: 2.73 ± 0.23 g/dL

Q: What about the Glucose [1, 8] of the same compound?
A: 159.30 ± 17.02 mg/dL

Q: What about the “Total Cholesterol” value [1, 8] of the same compound?
A: 63.46 ± 16.64 mg/dL

Q: And the “Total Protein” value [1, 8]?
A: 4.74 ± 0.23 g/dL

Q: What about the Triglycerides [1, 8] of the same compound?
A: 76.53 ± 17.11 mg/dL

Q: What about the HDL [1, 8] of the same compound?
A: 20.46 mg/dL

Q: And the LDL [1, 8]?
A: 85.55 mg/dL

Q: What about the VLDL [1, 8] of the same compound?
A: 12.69 mg/dL

Q: And the ALT/SGPT [1, 9]?
A: 54.81 ± 13.58 IU/L

Q: What about the AST/SGOT [1, 9] of the same compound?
A: 89.48 ± 35.58 IU/L

Q: What about the Albumin [1, 9] of the same compound?
A: 2.43 ± 0.42 g/dL

Q: What about the Glucose [1, 9] of the same compound?
A: 130.49 ± 21.28 mg/dL

Q: And the “Total Protein” value [1, 9]?
A: 5.08 ± 0.49 g/dL

Q: And the HDL [1, 9]?
A: 41.80 mg/dL

Q: What about the LDL [1, 9] of the same compound?
A: 97.45 mg/dL

Q: What about the VLDL [1, 9] of the same compound?
A: 12.37*^b ± mg/dl

Q: And the ALT/SGPT [1, 10]?
A: 48.44 ± 9.73 IU/L

Q: What about the AST/SGOT [1, 10] of the same compound?
A: 90.17 ± 25.87 IU/L

Q: What about the Albumin [1, 10] of the same compound?
A: 2.66 ± 0.17 g/dL

Q: What about the Glucose [1, 10] of the same compound?
A: 105.89 ± 37.17 mg/dL

Q: What about the “Total Cholesterol” value [1, 10] of the same compound?
A: 70.48 ± 14.59 mg/dL

Q: What about the “Total Protein” value [1, 10] of the same compound?
A: 4.42 ± 0.48 g/dL

Q: And the HDL [1, 10]?
A: 47.26 mg/dL

Q: What about the LDL [1, 10] of the same compound?
A: 94.46 mg/dL

Q: And the VLDL [1, 10]?
A: 14.10 mg/dL
